Like-named read-outs stand apart in the source and are kept apart here.
Assays:
[1] = system: 1A9 cells; test: SRB cytotoxicity assay, parental paclitaxel-sensitive 1A9 cells; type: cell-based, human; conditions: mean +/- SD, number of experiments in brackets, read-out: IC50 1A9 ("non-resistant")
From the text: (§1) The tubulin mutated, paclitaxel-resistant human ovarian carcinoma cell line 1A9-PTX10 and its parental paclitaxel-sensitive cell line 1A9 were derived from the A2780 human ovarian carcinoma cell line (J Biol Chem (1997) 272, 17118-17124).

[2] = system: 1A9-PTX10 cells; test: SRB cytotoxicity assay, tubulin mutated paclitaxel-resistant 1A9-PTX10 cells; type: cell-based, human; conditions: for IC50: 48 hours exposure, SRB, mean +/- SD, number of experiments in brackets; for RR (relative resistance) 1A9-PTX10 vs 1A9: ratio of the means of the resistant cells compared to the sensitive cells
From the text: as §1

[3] = system: NCI-Adr resistant subline; test: SRB cytotoxicity assay, P-glycoprotein expressing NCI-Adr resistant subline, with and without verapamil; type: cell-based; conditions: for IC50: 48 hours, SRB; for RR (relative resistance) NCI-Adr resistant −verapamil vs +verapamil: ratio of the means of the resistant cells compared to the sensitive cells
Experimental: (§5) Briefly, cells were plated in 96 well dishes 24 hours prior to compound addition. Where noted, they were exposed to verapamil for 4 hours prior to compound addition and then throughout the treatment period (48 hours). The assay was terminated with the addition of cold TCA to a final concentration of 10% and the plates were incubated for one hour at 4° C. The plates were then washed 5 times with water and 100 μl of a Sulforhodamine B solution (4%) was added to each well. The plate was then incubated for 10 minutes at room temperature before removal of unbound dye by washing with 1% acetic acid. The bound dye was solubilized with 10 mM Trizma base and the absorbance read at OD570.

[4] = system: CCRF/CEM cells; test: Calcein AM viability assay (flow cytometry), parental CEM cells; type: cell-based, human; conditions: 48 hours, read-out: IC50 CEM ("non-resistant")
Experimental: (§2) The Camptothecin resistant CEM/C2 cells were derived from the T lymphoblastoid leukemia cell line CCRF/CEM by selection in the presence of Camptohecin in vitro (Kapoor et al., 1995. Oncology Research 7; 83-95, ATCC
(§3) The cells were plated in T-25 flasks in the presence or absence of compound and incubated for 48 hours before termination of the assay. Cells were washed twice with PBS and incubated in 200 μl of a solution of Calcein AM (0.3 nM)/PBS for 90 minutes at 37° C. The cells were washed once with PBS before determining fluorescent units on a FACS can flow cytometer.

[5] = system: cells in S-phase; conditions: in vitro; cited from earlier work
[6] = system: CEM/C2 cells; test: Calcein AM viability assay (flow cytometry), camptothecin resistant CEM/C2 cells; type: cell-based, human; conditions: for IC50: 48 hours, Calcein AM; for RR (relative resistance) CEM/C2 vs CEM: atypical multi-drug resistance and mutant topoisomerase I
Experimental: as §2, §3

[7] = system: A129 cp80 cells; test: SRB cytotoxicity assay, cisplatin-resistant A129 cp80 cells; type: cell-based, human; conditions: for IC50: 48 hours, SRB
Experimental: (§6) The P-glycoprotein expressing NCI-Adr resistant subline (Vickers et al., 1989. Mol Endocrinology 3 (1):157-164) was used. […] Briefly, cells were plated in 96 well dishes 24 hours prior to compound addition. Where noted, they were exposed to verapamil for 4 hours prior to compound addition and then throughout the treatment period (48 hours). The assay was terminated with the addition of cold TCA to a final concentration of 10% and the plates were incubated for one hour at 4° C. The plates were then washed 5 times with water and 100 μl of a Sulforhodamine B solution (4%) was added to each well. The plate was then incubated for 10 minutes at room temperature before removal of unbound dye by washing with 1% acetic acid. The bound dye was solubilized with 10 mM Trizma base and the absorbance read at OD570.
(§7) The parental non-mutated cell line A 129 was used as control.
(§8) Cytotoxicty was measured using the SRB assay according to Shekan et al. as described above in Example 1A.

[8] = system: A129 cells; test: SRB cytotoxicity assay, parental A129 cells; type: cell-based, human; conditions: 48 hours, read-out: IC50 A129 ("non-resistant")
Experimental: as §6, §7, §8

[9] = system: MCF-7/VP cells; test: SRB cytotoxicity assay, etoposide-resistant MCF-7/VP cells (MRP1 up-regulated); type: cell-based; conditions: for IC50: 48 hours, SRB; for RR (relative resistance) MCF7/VP vs MCF7: mean +/- SD
From the text: (§4) The etoposide-resistant breast cancer cell line MCF-7/VP was used (Schneider et al, Cancer Res, 54, 152). […] ABCC1; Schneider et al, Cancer Res, 54, 152; Perez-Soler et al, Int J Cancer, 71,35). The parental cell line, MCF-7, was used as a control.

[10] = system: MCF-7 cells; test: SRB cytotoxicity assay, parental MCF-7 cells; type: cell-based; conditions: read-out: IC50 MCF7 ("non-resistant")
From the text: as §4

[11] = system: HT29 cells; test: SRB cytotoxicity assay, parental HT29 cells; type: cell-based; conditions: read-out: IC50 HT-29 ("non-resistant")
Experimental: as §5
(§9) The mitoxantrone-resistant colon carcinoma cell line HT29/MIT was used (Perego et al, Cancer Res, 61, 6034). […] The parental cell line, HT29, was used as a control.

[12] = system: HT29/MIT cells; test: SRB cytotoxicity assay, mitoxantrone-resistant HT29/MIT cells (BCRP up-regulated); conditions: for RR (relative resistance) HT-29/MIT vs HT-29: mean +/- SD; for IC50: read-out: IC50 HT-29/MIT ("resistant")
Experimental: as §5, §9

[13] = biological target: P-gp (Homo sapiens, UniProt P08183); conditions: more potent than cyclosporine; cited from earlier work
[14] = Homo sapiens, 1A9, 48 hours exposure
[15] = Homo sapiens, NCI/ADR-RES, no verapamil, read-out: IC50 NCI-Adr resistant −verapamil ("resistant")
[16] = Homo sapiens, NCI/ADR-RES, verapamil 12.5 μg/ml, read-out: IC50 NCI-Adr resistant +verapamil ("non-resistant")
[17] = read-out: IC50 MCF7/VP ("resistant")
[18] = no verapamil, read-out: IC50 NCI-Adr resistant −verapamil ("resistant")
[19] = verapamil 12.5 μg/ml, read-out: IC50 NCI-Adr resistant +verapamil ("non-resistant")

Chain of P-gp (P08183 whole entry): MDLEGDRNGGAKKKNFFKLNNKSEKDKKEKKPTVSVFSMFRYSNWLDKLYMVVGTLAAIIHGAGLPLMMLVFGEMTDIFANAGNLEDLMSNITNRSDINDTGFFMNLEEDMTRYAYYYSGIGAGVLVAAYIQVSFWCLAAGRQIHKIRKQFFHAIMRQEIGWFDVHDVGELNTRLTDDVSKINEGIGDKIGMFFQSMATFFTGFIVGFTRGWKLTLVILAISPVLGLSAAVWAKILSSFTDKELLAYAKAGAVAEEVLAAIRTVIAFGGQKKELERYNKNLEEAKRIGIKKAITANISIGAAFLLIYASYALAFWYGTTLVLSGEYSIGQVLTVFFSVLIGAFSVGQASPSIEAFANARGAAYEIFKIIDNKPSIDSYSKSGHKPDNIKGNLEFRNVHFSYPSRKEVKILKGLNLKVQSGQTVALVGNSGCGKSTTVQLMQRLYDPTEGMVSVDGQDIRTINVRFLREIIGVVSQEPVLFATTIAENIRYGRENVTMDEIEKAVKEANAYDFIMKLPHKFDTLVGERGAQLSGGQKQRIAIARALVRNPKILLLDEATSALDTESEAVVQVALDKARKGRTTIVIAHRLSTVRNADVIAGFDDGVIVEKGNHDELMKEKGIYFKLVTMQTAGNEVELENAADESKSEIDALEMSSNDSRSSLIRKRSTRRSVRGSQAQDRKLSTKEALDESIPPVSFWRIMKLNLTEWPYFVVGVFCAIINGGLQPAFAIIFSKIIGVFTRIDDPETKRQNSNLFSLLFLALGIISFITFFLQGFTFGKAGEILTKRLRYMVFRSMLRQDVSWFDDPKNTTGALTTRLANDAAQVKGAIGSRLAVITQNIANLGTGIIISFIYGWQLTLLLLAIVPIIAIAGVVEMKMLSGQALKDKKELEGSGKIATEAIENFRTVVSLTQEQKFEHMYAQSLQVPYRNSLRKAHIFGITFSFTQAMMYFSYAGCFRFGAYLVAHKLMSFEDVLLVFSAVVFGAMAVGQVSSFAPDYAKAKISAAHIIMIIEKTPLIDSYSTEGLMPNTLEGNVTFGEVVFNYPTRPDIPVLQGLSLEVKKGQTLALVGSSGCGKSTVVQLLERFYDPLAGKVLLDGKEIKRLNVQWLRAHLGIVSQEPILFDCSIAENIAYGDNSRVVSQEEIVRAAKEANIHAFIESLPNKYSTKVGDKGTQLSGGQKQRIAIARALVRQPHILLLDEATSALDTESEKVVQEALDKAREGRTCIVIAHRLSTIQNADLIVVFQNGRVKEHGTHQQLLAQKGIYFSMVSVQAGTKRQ

With `CC(=O)O[C@H]1C(=O)[C@@]2(C)[C@H]([C@H](OC(=O)c3ccccc3)[C@]3(O)C[C@H](OC(=O)[C@H](O)[C@@H](NC(=O)c4ccccc4)c4ccccc4)C(C)=C1C3(C)C)[C@]1(OC(C)=O)CO[C@@H]1C[C@@H]2O` [Paclitaxel, paclitaxel] as the molecule, how does the IC50 [1, 14] read?
Its IC50 is 5 nM.

What about the IC50 ([2]; Homo sapiens, 1A9/ptx-10) of the same molecule?
The IC50 was 213 nM.

What about the “RR (relative resistance) 1A9-PTX10 vs 1A9” value [2] of the same molecule?
The value was 42.6.

What about the IC50 [3, 15] of the same molecule?
The IC50 was 1420 nM.

What about the IC50 [3, 16] of the same molecule?
Its IC50 is 31 nM.

What about the “RR (relative resistance) NCI-Adr resistant −verapamil vs +verapamil” value [3] of the same molecule?
Its value is 46.

What does the source list for `CC[C@@]1(O)C(=O)OCc2c1cc1n(c2=O)Cc2cc3ccccc3nc2-1` [Camptothecin, camptothecin]?
IC50 ([4]; Homo sapiens, CCRF-CEM): 5 nM; sensitivity to camptothecin of cells in S-phase relative to cells in G1 or G2 [5]: 100-1000 times; IC50 ([6]; Homo sapiens, CEM/C2): 6750 nM; RR (relative resistance) CEM/C2 vs CEM [6]: 1500

Which IC50 [3, 15] does the source give for `COc1cccc2c1C(=O)c1c(O)c3c(c(O)c1C2=O)C[C@@](O)(C(=O)CO)C[C@@H]3O[C@H]1C[C@H](N)[C@H](O)[C@H](C)O1` [Adriamycin, adriamycin] here?
Its IC50 is 650 nM.

What about the IC50 [3, 16] of the same molecule?
The IC50 was 75000 nM.

And the “relative resistance, NCI-Adr resistant subline without vs with verapamil” value ([3]; individual experiments)?
The value was 115 fold.

And the “RR (relative resistance) NCI-Adr resistant −verapamil vs +verapamil” value [3]?
Its value is 115.

For `N.N.[Cl][Pt][Cl]` [Cisplatin, cisplatin], which IC50 [7] is on record?
The IC50 was 11600 nM.

And the IC50 [8]?
The IC50 was 130 nM.

What about the IC50 [4] of the same molecule?
Its IC50 is 2600 nM.

What about the IC50 ([1]; 48 hours exposure) of the same molecule?
The IC50 was 8400 nM.

What about the IC50 [2] of the same molecule?
Its IC50 is 13900 nM.

What about the IC50 [9, 17] of the same molecule?
Its IC50 is 31200 nM.

What about the IC50 [3, 18] of the same molecule?
The IC50 was 13200 nM.

And the IC50 [3, 19]?
Its IC50 is 13000 nM.

What about the IC50 ([10]; 48 hours) of the same molecule?
Its IC50 is 28700 nM.

What about the IC50 [6] of the same molecule?
Its IC50 is 2200 nM.

Which results are given for `COc1cc([C@@H]2c3cc4c(cc3[C@@H](O[C@@H]3O[C@@H]5CO[C@@H](C)O[C@H]5[C@H](O)[C@H]3O)[C@H]3COC(=O)[C@H]23)OCO4)cc(OC)c1O` [Etoposide, etoposide]?
IC50 ([9]; Homo sapiens, MCF7-VP): > 100000 nM; RR (relative resistance) MCF7/VP vs MCF7 [9]: >20; relative resistance in individual experiments, MCF-7/VP vs MCF-7 ([9]; range over individual experiments): > 20 fold; IC50 ([10]; Homo sapiens, MCF7, 48 hours): 7200 nM

What does the source list for `N.NC1CCCCC1.[Cl-].[Cl-].[Pt+2]` [JM118]?
IC50 ([11]; 48 hours): 4500 nM; RR (relative resistance) HT-29/MIT vs HT-29 [12]: 1.3 +/− 0.1; IC50 ([12]; 48 hours, SRB): 6000 nM; IC50 [7]: 430 nM; RR (relative resistance) A129 cp80 vs A129 ([7]; cisplatin resistance mechanism): 2.6; IC50 [8]: 170 nM; IC50 [4]: 430 nM; IC50 ([1]; 48 hours exposure): 500 nM; IC50 [2]: 1500 nM; RR (relative resistance) 1A9-PTX10 vs 1A9 [2]: 3.1; IC50 [9, 17]: 1300 nM; RR (relative resistance) MCF7/VP vs MCF7 [9]: 1.1 +/− 0.1; IC50 [3, 18]: 2100 nM; RR (relative resistance) NCI-Adr resistant −verapamil vs +verapamil [3]: 1.1; IC50 [3, 19]: 2300 nM; IC50 ([10]; 48 hours): 1200 nM; IC50 [6]: 500 nM; RR (relative resistance) CEM/C2 vs CEM [6]: 1.18

For `CC(=O)O[C@@]12CO[C@@H]1C[C@H](O)[C@@]1(C)C(=O)[C@H](O)C3=C(C)[C@@H](OC(=O)[C@H](O)[C@@H](NC(=O)OC(C)(C)C)c4ccccc4)C[C@@](O)([C@@H](OC(=O)c4ccccc4)[C@H]21)C3(C)C` [Taxotere, N-debenzoyl-N-tert-butoxycarbonyl-10-deacetyl paclitaxel], which IC50 [1, 14] is on record?
Its IC50 is 2 nM.

What about the IC50 ([2]; Homo sapiens, 1A9/ptx-10) of the same molecule?
The IC50 was 212 nM.

And the IC50 [3, 15]?
The IC50 was 620 nM.

What about the IC50 [3, 16] of the same molecule?
Its IC50 is 19 nM.

Which “P-gp inhibitor potency relative to cyclosporine” value [13] does the source give for `C/C=C/C[C@@H](C)C(=O)[C@H]1C(=O)N[C@@H](C(C)C)C(=O)N(C)CC(=O)N(C)[C@@H](CC(C)C)C(=O)N[C@@H](C(C)C)C(=O)N(C)[C@@H](CC(C)C)C(=O)N[C@@H](C)C(=O)N[C@H](C)C(=O)N(C)[C@@H](CC(C)C)C(=O)N(C)[C@@H](CC(C)C)C(=O)N(C)[C@@H](C(C)C)C(=O)N1C` [PSC-833] here?
The value was 10 times.

Which IC50 ([11]; Homo sapiens, HT-29, 48 hours) does the source give for `O=C1c2c(O)ccc(O)c2C(=O)c2c(NCCNCCO)ccc(NCCNCCO)c21` [Mitoxantrone, mitoxantrone] here?
The IC50 was 1300 nM.

And the IC50 ([12]; Homo sapiens, HT-29, 48 h)?
The IC50 was 198000 nM.

What about the “RR (relative resistance) HT-29/MIT vs HT-29” value [12] of the same molecule?
The value was 175 +/− 67.

Reference: patent US20080058411A1, “Methods For Treating Resistant Or Refractory Tumors” (GPC Biotech AG, priority 2004, published 2008)
